Experimental data taken from patent US20080318960A1, “PAR2-modulating compounds and their use” (priority 2005, published 2008).

Experiments:
Format in all cases: cell-based
[1] = target: T1, human PAR2 (Homo sapiens, UniProt P55085); experiment: Determination of changes in cytosolic calcium in transfected CHO-K1 cells; settings: intracellular calcium mobilization; for EC50: CHO-K1 cells transfected with PAR2, Fura-2; for Emax: CHO-K1 cells transfected with PAR2, response compared to SLIGRL at 100 nM, read-out: % Efficacy
T1 sequence (P55085 26-397): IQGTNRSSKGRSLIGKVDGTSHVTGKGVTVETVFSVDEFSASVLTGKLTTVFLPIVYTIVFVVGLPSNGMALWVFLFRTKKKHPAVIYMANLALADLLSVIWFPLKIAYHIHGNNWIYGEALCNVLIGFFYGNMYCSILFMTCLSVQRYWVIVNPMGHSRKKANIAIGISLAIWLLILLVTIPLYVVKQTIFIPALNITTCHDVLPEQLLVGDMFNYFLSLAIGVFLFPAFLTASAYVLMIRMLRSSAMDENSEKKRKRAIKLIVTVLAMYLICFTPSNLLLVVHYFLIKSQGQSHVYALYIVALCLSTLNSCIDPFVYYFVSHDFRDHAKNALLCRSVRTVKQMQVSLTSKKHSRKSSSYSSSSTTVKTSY
Experimental: 1. CHO-K1 cells transfected with PAR2 or a control receptor at a density 1-3×10^6 cells/ml are washed with phosphate-buffered saline.
2. Cells are loaded with 2 μM Fura-2 and analyzed with respect to the rise in intracellular calcium in the presence or absence of varying concentration of compound.
3. The response is compared to that elicited by the application of the standard reference ligand SLIGRL when tested at 100 nM.
Intracellular free calcium concentrations are calculated using the formula:
where Kd for Fura-2 is 224 nM, Fmax is the fluorescence in the presence of 0.04% Triton-X100 and Fmin is the fluorescence obtained after the addition of 5 mM EGTA in 30 mM Tris-HCl, pH7.4.
As shown in Table 2 and FIG. 3, these experiments have shown these agents act at human PAR2 to stimulate intracellular calcium mobilization.

[2] = target: T1, human PAR2; experiment: Determination of changes in inositol phosphates in transfected tsA cells; settings: inositol phosphate hydrolysis, transfected tsA cells (transformed HEK293), 45 min with ligand; for Emax: TS/A, read-out: % Efficacy
Experimental: Seed tsA cells (a transformed HEK293 cell line) at 10,000 cells/0.1 ml per well of 96 well plates at 37 C in a humidified 5% CO2 incubator in DMEM supplemented with 10% fetal calf serum, penicillin (100 units/ml) and streptomycin ([…]) and grown overnight.
Transfect the cells with plasmid DNAs coding receptors or G-protein helpers when needed using PolyFect according to the RSAT protocol described previously. At 18-20 h post-transfection, the medium is removed and the cells are labeled overnight with 2 uCi/ml myo-[2-3H] inositol (0.1 ml/well) freshly made in the culture medium.
Remove the medium and wash cells with Hank's Balanced Salt Solutions (HBSS) containing 1 mM CaCl2, 1 mM MgCl2, 20 mM LiCl and 0.1% BSA. The cells are then incubated with ligands for 45 min at 37 C (0.1 ml/well) and the reaction is stopped by exchanging the buffer with 150 ul/well ice-cold 20 mM formic acid. Add 50 ul/well 0.2M ammonium and store plates at −80 C or process samples immediately.
To separate total [3H] inositol phosphates (IPs) ion-exchange chromatography columns are loaded with 200 ul of AG 1-X8 resin suspension (50% resin and 50% water) and the cell extracts were applied to the columns. Wash the columns with 1 ml 40 mM ammonium hydroxide (pH9) and elute [3H] IPs into the 2 ml deep-well blocks with 0.4 ml 2M ammonium format/0.1M formic acid. Wash the columns with 0.6 ml water. Transfer the eluates into 7 ml scintillation vials and add 5 ml liquid scintillation cocktail. Mix well, leave the vials in the dark for at least 4 h and count on LS 6500 Multi-purpose Scintillation Counter (3 min/vial). This procedure collects IP1, IP2 and IP3.
As shown in Table 3 and FIG. 4, these experiments have shown these agents act at human PAR2 to stimulate inositol phosphate hydrolysis.

[3] = target: T1, human PAR2; experiment: Receptor Selection and Amplification Technology (R-SAT) functional receptor assay; design: expressed in transfected cells; host or cells: NIH3T3 cells, pSI-derived mammalian expression vector; settings: for EC50: NIH3T3 cells transfected with PAR2, PAR2 activation, negative log of EC50 in Molar; for Emax: NIH3T3 cells transfected with PAR2, percent maximal activation relative to SLIGRL, read-out: % Efficacy
Experimental: The functional receptor assay, Receptor Selection and Amplification Technology (R-SAT), was used to investigate the pharmacological properties of known and novel PAR2 compounds. R-SAT is disclosed in U.S. Pat. Nos. 5,707,798, 5,912,132, and 5,955,281, all of which are hereby incorporated herein by reference in their entirety, including any drawings.
Briefly, NIH3T3 cells were grown in 96 well tissue culture plates to 70-80% confluence. Cells were transfected for 16-20 h with plasmid DNAs using Polyfect (Qiagen Inc.) as per manufacturer's protocols. R-SATs were generally performed with 4 ng/well of receptor and 20 ng/well of β-galactosidase plasmid DNA. All receptor constructs used were in the pSI-derived mammalian expression vector (Promega Inc) as described previously. The PAR2 gene was amplified by PCR from genomic DNA using oligodeoxynucleotide primers based on the published sequence (GenBank Accession # Z49993 and Z49994). For large-scale transfections, cells were transfected for 16-20 h, then trypsinized and frozen in DMSO. Frozen cells were later thawed, plated at ˜10,000 cells per well of a 96 half-area well plate that contained drug. With both methods, cells were then grown in a humidified atmosphere with 5% ambient CO2 for five days. Media was then removed from the plates and marker gene activity was measured by the addition of the β-galactosidase substrate o-nitrophenyl β-D-galactopyranoside (ONPG, in PBS with 0.5% NP-40). The resulting colorimetric reaction was measured in a spectrophotometric plate reader (Titertek Inc.) at 420 nm. All data were analyzed using the computer program XLFit (IDBSm). Efficacy is the percent maximal activation compared to activation by a control compound, the PAR2 activating hexapeptide SLIGRL (serine-leucine-isoleucine-glycine-arginine-leucine). pEC50 is the negative of the log (EC50), where EC50 is the calculated concentration in Molar that produces 50% maximal activation.
These experiments provide a molecular profile, or fingerprint, for each of these agents at human PAR2.
Efficacy is relative to that of SLIGRL.

Row | SMILES | EC50 [1] | Emax [1] | Emax [2] | EC50 [2] | EC50 [3] | Emax [3]
1 | C/C(=N\NC(=O)C(NC(=O)c1ccccc1)c1n[nH]c(=O)c2ccccc12)c1cccc(Br)c1 (stereo not drawn) [Compound 3, N-[2-{(2E)-2-[1-(3-bromophenyl)ethylidene]hydrazino}-2-oxo-1-(4-oxo-3,4-dihydro-1-phthalazinyl)ethyl]benzamide] | 3980 nM | 72% | 120% | 2510 nM | 126 nM | 98%
2 | C/C(=N\NC(=O)C(NC(=O)c1ccccc1)c1n[nH]c(=O)c2ccccc12)c1cccc(C#N)c1 (stereo not drawn) [Compound 29, N-[2-{(2E)-2-[1-(3-cyanophenyl)ethylidene]hydrazino}-2-oxo-1-(4-oxo-3,4-dihydro-1-phthalazinyl)ethyl]benzamide] | – | – | – | – | 316 nM | 132%
3 | C/C(=N\NC(=O)C(NC(=O)c1ccccc1)c1n[nH]c(=O)c2ccccc12)c1cc(C)cc(C)c1 (stereo not drawn) [Compound 43, N-[2-{(2E)-2-[1-(3,5-dimethylphenyl)ethylidene]hydrazino}-2-oxo-1-(4-oxo-3,4-dihydro-1-phthalazinyl)ethyl]benzamide] | 7940 nM | 85% | 130% | 10000 nM | 79.4 nM | 122%
4 | COc1cccc(/C(C)=N/NC(=O)C(NC(=O)c2ccccc2)c2n[nH]c(=O)c3ccccc23)c1 (stereo not drawn) [Compound 6, N-[2-{(2E)-2-[1-(3-methoxyphenyl)ethylidene]hydrazino}-2-oxo-1-(4-oxo-3,4-dihydro-1-phthalazinyl)ethyl]benzamide] | – | – | – | – | 794 nM | 79%
5 | CC/C(=N\NC(=O)C(NC(=O)c1ccccc1)c1n[nH]c(=O)c2ccccc12)c1cccc(Br)c1 (stereo not drawn) [Compound 25, N-[2-{(2E)-2-[1-(3-bromophenyl)propylidene]hydrazino}-2-oxo-1-(4-oxo-3,4-dihydro-1-phthalazinyl)ethyl]benzamide] | – | – | – | – | 501 nM | 111%
6 | C/C(=N\NC(=O)C(NC(=O)c1ccccc1)c1n[nH]c(=O)c2ccccc12)c1cccc(C(F)(F)F)c1 (stereo not drawn) [Compound 27, N-[2-oxo-1-(4-oxo-3,4-dihydro-1-phthalazinyl)-2-((2E)-2-{1-[3-(trifluoromethyl)phenyl]ethylidene}hydrazino)ethyl]benzamide] | – | – | – | – | 251 nM | 77%
7 | C/C(=N\NC(=O)C(NC(=O)c1ccccc1)c1n[nH]c(=O)c2ccccc12)c1cccc(C)c1 (stereo not drawn) [Compound 31, N-[2-{(2E)-2-[1-(3-methylphenyl)ethylidene]hydrazino}-2-oxo-1-(4-oxo-3,4-dihydro-1-phthalazinyl)ethyl]benzamide] | – | – | – | – | 316 nM | 118%
8 | C/C(=N\NC(=O)C(NC(=O)c1ccccc1)c1n[nH]c(=O)c2ccccc12)c1cccc(Cl)c1 (stereo not drawn) [Compound 28, N-[2-{(2E)-2-[1-(3-chlorophenyl)ethylidene]hydrazino}-2-oxo-1-(4-oxo-3,4-dihydro-1-phthalazinyl)ethyl]benzamide] | – | – | – | – | 158 nM | 112%
